Results published in patent US8642074B2, “Thermosensitive liposomes containing therapeutic agents” (Celsion Corporation, priority 2007, dated 2014).
Where “and” joins values, the source holds several entries; their conditions need not be identical. Identical values can stand only once.

Legend:
[1] = In vivo drug distribution in heated and non-heated leg muscle, liposome vs free docetaxel (Example 2); design: species or system BALB/c mice
Method: Six female BALB/c mice (20±2 g) were randomly separated into 3 groups. The mice were anesthetized and put on a Styrofoam board with a hole in it. One leg of the mouse was pulled through the hole to other side of the board. The board was floated in a water bath to heat the leg at 43.5±0.5° C. for 15 min. The mice then received a tail vein injection of either liposomes at a dose of 10 mg/kg or the same dose of Taxotere (control: prepared according to the manufacturers specifications) The one leg from each mouse was then heated for 30 min. after injection and then sacrificed. Muscles from the heated and non-heated legs were excised. Drug was extracted from a fixed weight of muscle tissue using the extraction method described above. The extracted drug was analyzed by HPLC.

[2] = system: Lewis lung carcinoma cells; experiment: In vivo efficacy in mice bearing Lewis lung tumors with local heating; design: species or system Kunming mice; settings: day 18, 75 mg/m^2 on days 8, 12, 16
Method: Twelve female Kunming mice, between 7-9 weeks old and weighing 20±2 g were used. Lewis lung carcinoma cells (3×10^6 cells in 0.1 ml of PBS.) were implanted subcutaneously into the right lower leg of each mouse. Tumors were allowed to grow to 4-6 mm in diameter before starting treatment.
The 12 mice were stratified by tumor volume and randomized to 3 treatment groups: saline, free docetaxel and the thermosensitive liposomes of the invention.
Docetaxel-containing thermosensitive liposomes of the invention were prepared as described above and stored at 2-8° C. until use. Treated animals were injected with 75 mg/m^2 docetaxel either in a thermosensitive liposome of the invention or as non-liposomal Taxotere prepared according to the manufacturer's specifications.
The treatment was started on day 8 after the tumor implantation and was repeated on day 12 and day 16. Mice in all treatment groups were anesthetized with an IP injection of pentobarbital (80 mg/kg); treatment was administered in a volume of 0.2 ml via tail vein injection. This dose of anesthesia provided adequate immobilization for the 1-h treatment period.
Except for the saline group, all treatment groups were given an equivalent dose of 75 mg/m^2 of docetaxel. Immediately after injection, the mice were positioned in specially designed holders that allowed the isolated leg tumor to be placed in a water bath for 30 minutes. The water bath temperature was set at 43° C. This water bath temperature has been calibrated previously to give tumor temperatures of 42° C. All the mice were sacrificed at day 18. The tumors were surgically excised and the tumor weights were recorded. The tumor growth inhibition was calculated as follows: Tumor Inhibition Ratio=(Vs−Vx)/Vs
Where: Vs is tumor volume of saline group, Vx is the tumor volume of treatment group.

drug concentration in heated compared with non heated tissue ([1]; Example 2, 10 mg/kg tail vein): the same | Adrug/Aref % (heated leg) ([1]; muscle, leg heated at 43.5±0.5° C., 10 mg/kg tail vein, HPLC, Groups 1-3, 10 mg/kg): 5.46% and 6.53% and 5.48% | Adrug/Aref % (non-heated leg) ([1]; muscle, non-heated leg, 10 mg/kg tail vein, HPLC, Groups 1-3, 10 mg/kg): 5.48% and 6.29% and 5.32%
SMILES: CC(=O)O[C@@]12CO[C@@H]1C[C@H](O)[C@@]1(C)C(=O)[C@H](O)C3=C(C)[C@@H](OC(=O)[C@H](O)[C@@H](NC(=O)OC(C)(C)C)c4ccccc4)C[C@@](O)([C@@H](OC(=O)c4ccccc4)[C@H]21)C3(C)C [Docetaxel, docetaxel]
Tumor Weight Average ([2]; group average, tumor heated 30 min, in g (unit assumed)): 1.002 | Tumor Weight ([2]; individual mice, tumor heated 30 min at 42° C., listed as Docetaxel Injection, in g (unit assumed)): 0.500 and 0.118 and 1.380 and 2.010 | Inhibition % ([2]; vs saline group, tumor heated 30 min): 77.91%
